Results from patent US12600709B2, “Nonpeptide somatostatin type 5 receptor agonists and uses thereof” (Crinetics Pharmaceuticals, Inc., priority 2019, dated 2026).
Read-outs that look alike come from different tables or passages of the source.

Experiments:
[1] = target: T1, human somatostatin receptor subtype 2 (Homo sapiens, UniProt P30874); test: cAMP assay for SST2R (inhibition of cAMP in CHO-K1 cells); format: cell-based; details: Table B; inhibition of cAMP via human SST2 receptor; read-out: SST2 potency
T1 construct: expressed in transfected cells
T1 sequence (P30874 whole entry): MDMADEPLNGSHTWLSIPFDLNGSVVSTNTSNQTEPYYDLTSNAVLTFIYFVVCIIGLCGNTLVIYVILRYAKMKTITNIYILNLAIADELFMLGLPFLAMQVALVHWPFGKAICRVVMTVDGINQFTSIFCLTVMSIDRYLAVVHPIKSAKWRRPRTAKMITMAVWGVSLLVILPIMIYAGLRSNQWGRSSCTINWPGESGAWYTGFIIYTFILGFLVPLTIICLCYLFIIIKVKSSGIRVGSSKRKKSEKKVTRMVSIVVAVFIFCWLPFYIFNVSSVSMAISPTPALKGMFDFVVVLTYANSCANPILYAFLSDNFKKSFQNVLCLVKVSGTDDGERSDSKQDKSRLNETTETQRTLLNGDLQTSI
Outline: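 Agonism read as decrease in NKH477 (1.6 μM)-stimulated cAMP: compounds applied 20 min, 37° C, with 0.2 mM IBMX, to CHO-K1 stably expressing human SSTR2. cAMP quantified in lysates by time-resolved fluorescence (HTRF kit, 1-24 h RT), standard-curve regression, then EC50.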

[2] = target: T2, human somatostatin receptor subtype 5 (Homo sapiens, UniProt P35346); test: cAMP assay for SST5R (inhibition of cAMP in CHO-K1 cells); format: cell-based; details: for EC50: inhibition of cAMP via human SST5 receptor, read-out: SST5 potency; for Fold selectivity for SST5 vs SST2: class symbols, SST5 receptor over SST2 receptor
T2 construct: expressed in transfected cells
T2 sequence (P35346 whole entry): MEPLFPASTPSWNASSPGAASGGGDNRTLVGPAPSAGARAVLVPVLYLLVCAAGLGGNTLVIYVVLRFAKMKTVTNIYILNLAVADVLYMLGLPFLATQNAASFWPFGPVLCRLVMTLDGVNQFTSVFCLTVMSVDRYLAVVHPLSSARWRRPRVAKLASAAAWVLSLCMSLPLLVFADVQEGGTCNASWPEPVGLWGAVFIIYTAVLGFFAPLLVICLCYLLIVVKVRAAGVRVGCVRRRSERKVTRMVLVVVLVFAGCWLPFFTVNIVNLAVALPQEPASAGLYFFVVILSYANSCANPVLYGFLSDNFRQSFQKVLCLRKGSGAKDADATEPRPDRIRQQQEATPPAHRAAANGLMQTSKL
Outline: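 CHO-K1 cells stably expressing human SSTR5 were treated 20 min at 37 °C with compounds plus 1.6 μM NKH477 in HBSS, 0.5 mM HEPES pH 7.4, 0.1% BSA, 0.2 mM IBMX. Lysate cAMP measured by HTRF against a standard curve; EC50 from cAMP-versus-concentration plots.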

Compound	EC50 [1] [nM]	EC50 ([2]; Table A) [nM]	Fold selectivity for SST5 vs SST2 ([2]; Table B)	EC50 ([2]; Table B) [nM]
N#Cc1ncc(C(=O)NC(C2CC2)C2CC2)c(N2CC[C@H](N)C2)c1-c1cc(F)cc(F)c1 [1-70, 4-[(3S)-3-aminopyrrolidin-1-yl]-6-cyano-N-(dicyclopropylmethyl)-5-(3,5-difluorophenyl)pyridine-3-carboxamide]	> 1000	< 10	+++ (+++=>500)	< 10
C[C@H](NC(=O)c1cnc(C#N)c(-c2ccn(C)n2)c1N1CC[C@](C)(N)C1)C1CC1 [1-121, 4-[(3S)-3-amino-3-methylpyrrolidin-1-yl]-6-cyano-N-[(1S)-1-cyclopropylethyl]-5-(1-methyl-1H-pyrazol-3-yl)pyridine-3-carboxamide]	> 1000	< 10	+++ (+++=>500)	< 10
Cc1cccc2[nH]c(-c3cncc(C(=O)NC45CC(C4)C5)c3N3CC[C@](C)(N)C3)nc12 [2-15, 4-[(3S)-3-amino-3-methylpyrrolidin-1-yl]-N-{bicyclo[1,1,1]pentan-1-yl}-5-(4-methyl-1H-1,3-benzodiazol-2-yl)pyridine-3-carboxamide]	100 to 1000	< 10	++ (++=100 to 499)	< 10
Cc1cccc2[nH]c(-c3cncc(C(=O)N4CCCC4C(C)C)c3N3CC[C@](C)(N)C3)nc12 (stereo partly drawn) [2-36, (3S)-3-methyl-1-[3-(4-methyl-1H-1,3-benzodiazol-2-yl)-5-[2-(propan-2-yl)pyrrolidine-1-carbonyl]pyridin-4-yl]pyrrolidin-3-amine]	100 to 1000	< 10	+++ (+++=>500)	< 10
Cc1ncc(C(=O)N[C@@H](C)C(F)(F)F)c(N2CC[C@](C)(N)C2)c1-c1cc(F)cc(OC(F)F)c1 [1-171, 4-[(3S)-3-amino-3-methylpyrrolidin-1-yl]-5-[3-(difluoromethoxy)-5-fluorophenyl]-6-methyl-N-[(2S)-1,1,1-trifluoropropan-2-yl]pyridine-3-carboxamide]	10 to 100	< 10	+++ (+++=>500)	< 10
Cc1ncc(C(=O)NC2CCC(F)(F)CC2)c(N2CC[C@](C)(N)C2)c1-c1cc(F)cc(OC(F)F)c1 [1-174, 4-[(3S)-3-amino-3-methylpyrrolidin-1-yl]-N-(4,4-difluorocyclohexyl)-5-[3-(difluoromethoxy)-5-fluorophenyl]-6-methylpyridine-3-carboxamide]	100 to 1000	< 10	+++ (+++=>500)	< 10
CC1(C)CC(NC(=O)c2cncc(-c3cc(F)cc(F)c3)c2N2CC[C@](C)(N)C2)C1 [1-22, 4-[(3S)-3-amino-3-methylpyrrolidin-1-yl]-5-(3,5-difluorophenyl)-N-(3,3-dimethylcyclobutyl)pyridine-3-carboxamide]	100 to 1000	< 10	++ (++=100 to 499)	< 10
C[C@H](NC(=O)c1cnc(C(F)(F)F)c(-c2cc(F)cc(Cl)c2)c1N1CC[C@H](N)C1)C1CC1 [1-198, 4-[(3S)-3-aminopyrrolidin-1-yl]-5-(3-chloro-5-fluorophenyl)-N-[(1S)-1-cyclopropylethyl]-6-(trifluoromethyl)pyridine-3-carboxamide]	10 to 100	< 10	++ (++=100 to 499)	< 10
C[C@]1(N)CCN(c2c(C(=O)NC3CCCC3)cnc(C#N)c2-c2cc(F)cc(F)c2)C1 [1-78, 4-[(3S)-3-amino-3-methylpyrrolidin-1-yl]-6-cyano-N-cyclopentyl-5-(3,5-difluorophenyl)pyridine-3-carboxamide]	10 to 100	< 10	+++ (+++=>500)	< 10
COc1ncc(C(=O)N[C@@H](C)C(F)(F)F)c(N2CC[C@](C)(N)C2)c1-c1ccc(F)c(F)c1 [1-259, 4-[(3S)-3-amino-3-methylpyrrolidin-1-yl]-5-(3,4-difluorophenyl)-6-methoxy-N-[(2S)-1,1,1-trifluoropropan-2-yl]pyridine-3-carboxamide]	10 to 100	< 10	+++ (+++=>500)	< 10
CCOC(=O)CCOc1ncc(C(=O)NC2CCC(F)(F)CC2)c(N2CC[C@H](N)C2)c1-c1cc(F)cc(F)c1 [1-201, ethyl 3-({4-[(3S)-3-aminopyrrolidin-1-yl]-5-[(4,4-difluorocyclohexyl)carbamoyl]-3-(3,5-difluorophenyl)pyridin-2-yl}oxy)propanoate]	> 1000	< 10	+++ (+++=>500)	< 10
Cc1cccc(NC(=O)c2cncc(-c3ccnc(C#N)c3)c2N2CC[C@](C)(N)C2)c1 [1-5, 4-[(3S)-3-amino-3-methylpyrrolidin-1-yl]-2′-cyano-N-(3-methylphenyl)-[3,4′-bipyridine]-5-carboxamide]	100 to 1000	< 10	+++ (+++=>500)	< 10
C[C@]1(N)CCN(c2c(C(=O)NC34CC(C3)C4)cnc(C#N)c2-c2cc(F)cc(F)c2)C1 [1-49, 4-[(3S)-3-amino-3-methylpyrrolidin-1-yl]-N-{bicyclo[1.1.1]pentan-1-yl}-6-cyano-5-(3,5-difluorophenyl)pyridine-3-carboxamide]	100 to 1000	< 10	+++ (+++=>500)	< 10
C[C@H](NC(=O)c1cnc(C#N)c(-c2cc(F)cc(F)c2)c1N1CC[C@](N)(CC(F)F)C1)C1CC1 [1-118, 4-[(3S)-3-amino-3-(2,2-difluoroethyl)pyrrolidin-1-yl]-6-cyano-N-[(1S)-1-cyclopropylethyl]-5-(3,5-difluorophenyl)pyridine-3-carboxamide]	> 1000	< 10	+++ (+++=>500)	< 10
Cc1cccc2[nH]c(-c3cncc(C(=O)NC4CCCCC4)c3N3CC[C@](C)(N)C3)nc12 [2-38, 4-[(3S)-3-amino-3-methylpyrrolidin-1-yl]-N-cyclohexyl-5-(4-methyl-1H-1,3-benzodiazol-2-yl)pyridine-3-carboxamide]	100 to 1000	< 10	+ (+=10 to 99)	< 10
COC[C@@]1(N)CCN(c2c(C(=O)N[C@@H](C)C3CC3)cnc(C#N)c2-c2cc(F)cc(F)c2)C1 [1-116, 4-[(3R)-3-amino-3-(methoxymethyl)pyrrolidin-1-yl]-6-cyano-N-[(1S)-1-cyclopropylethyl]-5-(3,5-difluorophenyl)pyridine-3-carboxamide]	> 1000	< 10	+++ (+++=>500)	< 10
Cc1ncc(C(=O)NC23CC(F)(C2)C3)c(N2CC[C@H](N)C2)c1-c1cc(F)cc(Cl)c1 [1-278, 4-[(3S)-3-aminopyrrolidin-1-yl]-5-(3-chloro-5-fluorophenyl)-N-{3-fluorobicyclo[1.1.1]pentan-1-yl}-6-methylpyridine-3-carboxamide]	> 1000	< 10	+++ (+++=>500)	< 10
COc1cc(-c2c(C#N)ncc(C(=O)NC3CCCC3)c2N2CC[C@](C)(N)C2)ccn1 [1-254, 4-[(3S)-3-amino-3-methylpyrrolidin-1-yl]-2-cyano-N-cyclopentyl-2′-methoxy-[3,4′-bipyridine]-5-carboxamide]	> 1000	< 10	+++ (+++=>500)	< 10
C[C@]1(N)CCN(c2c(C(=O)NC3CCCCC3)ccnc2-c2cc(F)cc(F)c2)C1 [3-2, 3-[(3S)-3-amino-3-methylpyrrolidin-1-yl]-N-cyclohexyl-2-(3,5-difluorophenyl)pyridine-4-carboxamide]	> 1000	< 10	+++ (+++=>500)	< 10
Cc1ncc(C(=O)NC2CCCCC2)c(N2CC[C@](C)(N)C2)c1-c1ccnc(C(F)(F)F)c1 [1-257, 4-[(3S)-3-amino-3-methylpyrrolidin-1-yl]-N-cyclohexyl-2-methyl-2′-(trifluoromethyl)-[3,4′-bipyridine]-5-carboxamide]	> 1000	< 10	+++ (+++=>500)	< 10
N#Cc1ncc(C(=O)NC23CC(C2)C3)c(N2CC[C@H](N)C2)c1-c1cc(F)cc(Cl)c1 [1-90, 4-[(3S)-3-aminopyrrolidin-1-yl]-N-{bicyclo[1.1.1]pentan-1-yl}-5-(3-chloro-5-fluorophenyl)-6-cyanopyridine-3-carboxamide]	100 to 1000	< 10	+++ (+++=>500)	< 10
COc1cc(-c2c(C#N)ncc(C(=O)NCC(C)C)c2N2CC[C@](C)(N)C2)ccn1 [1-270, 4-[(3S)-3-amino-3-methylpyrrolidin-1-yl]-2-cyano-2′-methoxy-N-(2-methylpropyl)-[3,4′-bipyridine]-5-carboxamide]	> 1000	< 10	+++ (+++=>500)	< 10
Cc1ncc(C(=O)NCc2ccon2)c(N2CC[C@](C)(N)C2)c1-c1cc(F)cc(Cl)c1 [1-242, 4-[(3S)-3-amino-3-methylpyrrolidin-1-yl]-5-(3-chloro-5-fluorophenyl)-6-methyl-N-[(1,2-oxazol-3-yl)methyl]pyridine-3-carboxamide]	> 1000	< 10	+++ (+++=>500)	< 10
